Series [1] deals with C57BL/6 mouse spleen cells. Put plainly: Growth arrest of spleen cells cultured with mitogen Con A (thymidine incorporation). Type of series: cell-based. The conditions noted are these: 48 hours.
Protocol: Growth of spleen cells was evaluated in response to the mitogen Con A (2.5 μg/ml) after 48 hours by radioactive thymidine incorporation. Comparison is made at doses in mg/ml for inhibiting 25%, 50% and 90% of the growth of spleen cells; i.e. IC dose values.
Growth of spleen cells was evaluated in response to the mitogen Con A (2.5 μg/ml) after 48 hours by radioactive thymidine incorporation. Comparison is made at concentrations in mg/ml for inhibiting 25%, 50% and 90% of the growth of spleen cells; IC values.
Comparison is made at doses in mg/ml for inhibiting 25%, 50% and 90% of the growth of spleen cells; IC values.
For the study of Citrimix as the calcium/potassium alpha hydroxy citric acid chelate compared to the ammonia chelate of hydroxy citric acid (Nu-Citrimix), inhibition growth of primary spleen cells after in vitro exposure in microtiter cell culture for 48 hours in the presence of mitogen (Con A, 2 ug/ml), was the bioassay procedure used (Akesson C., Lindgren H., Pero R. W., Leanderson T., Ivars F., “An extract of Uncaria Tomentosa inhibiting cell division and NF-kB activity without inducing cell death,” International Immunopharm 3:1889-1900, 2003).
The next series relates to NF-kB. Put plainly: NF-kB inhibition in Jurkat T cells. It counts as cell-based, human. To be noted: FIG. 4. As for the experimental part:
FIG. 4 illustrates the evaluation of NF-kB in Jurkat T cells as previously described in detail after treatment with quinic acid (H+), quinic aid ammonium chelate neutralized to pH=7.5 or the equivalent amount of […] (NH4Cl).
Independent inhibition of NF-kB by either QA or NH4+ ions. Human Jurkat T cells were incubated together with either QA, QA-NH4+ or NH4Cl, and the degree of inhibition of NF-kB evaluated as described elsewhere. See, FIG. 4. Parra E, et al., 1997. Mol Cell Biol 17:1324-23; Akesson, C., et al., Int. Immunopharmacol., 5(1):219 (2005).

The test system of series [2] is human HL-60 leukemic cells. The series is described as follows: In vitro growth inhibition of cultured HL-60 cells by quinic acid salts/chelates (MTT). It counts as cell-based. The conditions noted are these: 72 hr, concentrations up to 3000 μg/ml. The source says:
FIG. 1 illustrates in vitro growth inhibition expressed as IC50 values (i.e. the dose that inhibits 50% of growth) induced by various quinic acid salts, chelates or salts/chelates (molecular structure at saturation undetermined) in cultured HL-60 cells. QA-H+=free quinic acid (H+), QA-NH4.+=quinic acid ammonium chelate, QA-Na+=quinic acid sodium salt, QA-K+=quinic acid potaasium chelate, QA-Zn++=quinic acid zinc salt/chelate, QA-Li+=quinic acid lithium salt/chelate, Ca++=quinic acid calcium chelate, quinic acid histidine salt/chaelate=QA-histidine, quinic acid lysine salt/chelate=QA-lysine, and C-Med-100=non pH adjusted water extract.
For the study involving quinic acid salts and chelates (FIG. 1) quinic acid was purchased from Sigma (>99%). QA salts/chelates were synthesized by neutralization to pH=7.5 with the appropriate base, i.e., NH4OH, NaOH, Ca(OH)2, Zn(OH)2, LiOH, KOH, lysine or histidine. Serial dilutions of test compounds were added to human HL-60 leukemic cells (0.05×10^6 cells/ml) in 96-well, flat bottomed microtiter plates to give final concentrations in the cultures up to 3000 μg/ml. The plates were incubated for 72 hr at 37 C, pulsed with 20 μl MTT (5 mg/ml) for 3 hr, and the color estimated spectrophotometrically at 540 nm as described previously. (Schweitzer, C M et al. Spectrophotometric determination of clonogenic capacity of leukemic cells in semisolid microtiter culture systems. Experimental Hematology 21: 573-578, 1993). IC50 values were calculated and compared based on the live/dead ratio of cells.

Series [3] deals with Rat white blood cells (WBC). The series is described as follows: DNA damage recovery in the rat after DXR treatment, white blood cell count. Type of series: in vivo. The conditions noted are these: for Prevention of cell death after exposure to DNA damaging agent DXR: DXR treatment, WBC after 15 days. From the text: White blood cell (WBC) growth after 15 days estimated as 10^12WBC/liter blood. DXR=doxorubicin DNA damaging agent.
(§1) Rat white blood cells (WBC) or mouse spleen WBC were increased in vivo after quinic acid oral administration either by gavage or in drinking water from 7.2 to >8.2×10^6 cells/ml or 6.2 to 8.3×10^9 cells/ml, respectively. […] If extrapolated into a lifespan which is logically reasonable, then living to an average age of 90 years would be increased to 112 years by ingesting optimal amounts of quinic acid during one's lifetime.

The subject of the next series is mouse spleen WBC. The series is described as follows: Mouse spleen WBC after quinic acid oral administration. It counts as in vivo. The conditions noted are these: oral (gavage or drinking water), increased from 6.2.
From the text: as §1

Another series relates to DNA repair. The series is described as follows: DNA repair enhancement in vivo. From the text: The discovery began in trying to explain the biological activity of a hot water extract of Cat's Claw bark, Uncaria tomentosa, called C-Med-100. […] After this initial biological characterization, the applicant has set forth to identify the natural product behind DNA repair enhancement as a potential anti-aging therapy. A series of chemical studies have led scientists to first identify carboxy alkyl esters (CAEs) as the bioactives and then it was followed by quinic acid esters (QAEs) being identified as the only bioactive CAEs in cat's claw water extracts. […] bioactive both in vitro and in vivo. […] However, quinic acid is present in water extracts of Cat's Claw as […] in effect in a pro-metabolite form since the QAEs would be hydrolyzed to quinic acid in the gastrointestinal tract.

The conditions of series [4]: 2700 μg/ml; Jacobsen et al 1978; cited from earlier work.
The conditions of series [5]: lower animals, oral, highest dose tested 300-600 mg/kg; Adamson et al 1970; cited from earlier work.
The conditions of series [6]: human, oral, highest dose tested 90 mg/kg; Beer et al 1951, Adamson et al 1970; cited from earlier work.
For series [7] the following is noted: mouse, drink water; Akesson et al 2005; cited from earlier work.
The conditions of series [8]: rat, oral; Sheng et al 2005; cited from earlier work.
Series [9] can be described thus: Safety, toxicity and efficacy (Table 2), human. Type of series: in vivo. To be noted: oral, highest dose tested 70 mg/kg, University of Lund human volunteer n = 2. The source says:
Quinmax™ is substantially pure quinic acid neutralized with aqueous ammonia to pH=7.5. As a result, in water ammonium ions are also generated which in themselves have potent biological functions. Ammonium ions, for example, stimulate protein synthesis in the GI tract, neutralize lysosomal vesicles thus preventing oxidative stress DNA damage, and inhibit NF-kB mediated inflammatory responses. These are examples of additional biological properties of Quinmax™, which is devoid of any added-on toxicity. […] Jacobsen, L B, Richardson, C L, Floss, H G. 1978. Shikimic acid and quinic acid are not mutagenic in the Ames assay. Lloydia 41(5): 450-452. Here the most important consideration is to compare the highest doses of quinic acid exposure to those shown to have efficacy in various animal models. It is quite apparent that quinic acid doses that far exceed the known efficacious doses of quinic acid have been used in the various animal model systems.
Here the most important consideration is to compare the highest doses of quinic acid exposure to those shown to have efficacy in various animal models. It is quite apparent that quinic acid doses that far exceed the known efficacious doses of quinic acid have been used in the various animal model systems. […] Moreover, Quinmax™ is quinic acid neutralized with aqueous ammonia to pH=7.5. […]

The conditions of series [10]: human, in vivo, po.
Protocol: Additional oral administration of high dose QA was carried out after ingestion of 6 gm Quinmax™ in human volunteers at the University of Lund. The purpose of this study was to determine if significant metabolism of QA to hippuric acid occurred when QA was administered in the ammonia chelated form as Quinmax™, a 1:1.6 molar ratio of QA to ammonia ions.
A apparently healthy volunteer drank 6 gm Quinmax™ dissolved in 300 ml water over a 15 min period, and then about 40 ml of peripheral blood (4-red topped vacutainers) were allowed to clot at room temperature to prepare serum samples by centrifugation. The serum sampling points were 0.7 hr, 1.7 hr, 2.7 hr, 3.7 hr, 10.5 hr 12.5 hr, 22 hr, 28 hr and 44 hr. 30 ml serum samples were precipitated with 50% ethanol, taken to dryness under a stream of air, and redissolved in 1 ml of methanol for simultaneous HPLC analysis of quinic acid and hippuric acid.
First to determine when peak serum concentrations of QA occurred and how long they would remain detectable.

“Also recorded” adds a separate entry of the source. Read-outs that look alike come from different tables or passages of the source.

With `Cl.N` [NH4Cl, reference compound], in series [1], the “IC25 growth of spleen cells (comparison in words)” value is recorded as “comparable to the quinic acid ammonium chelate”, the “IC50 growth of spleen cells (comparison in words)” value was “comparable to the quinic acid ammonium chelate” and the “IC90 growth of spleen cells (comparison in words)” value was “comparable to the quinic acid ammonium chelate”. In the series with NF-kB, the “NF-kB inhibition (comparison in words)” value was “as effective as the quinic acid NH4+ chelate”.

As for `O=C([O-])C1(O)CC(O)C(O)C(O)C1.O=C([O-])C1(O)CC(O)C(O)C(O)C1.[Ca+2]` (stereo not drawn) [QA-Ca++, quinic acid calcium chelate], in series [2] (FIG. 1), the “IC50 growth inhibition of HL-60 cells (comparison in words)” value (from here on “IC50 growth inhibition of HL-60 cells”) was “more effective than known salts such as QA-Na+”.

Consider `O=C(O)[C@]1(O)C[C@@H](O)[C@@H](O)[C@H](O)C1` [Quinic acid], for which, in series [3] (calculated from rat WBC and mouse spleen WBC increases), the “Increase in the protection of the DNA from becoming damaged and killing the cells” value is reported as 13-25%. In series [3] (rat), the “Prevention of cell death after exposure to DNA damaging agent DXR” value is on record as “prevent cell death”. Also, the “Rat white blood cells (WBC) after oral administration” value in series [3] (rat, oral (gavage or drinking water), increased from 7.2) is listed as > 8.2 ×10^6 cells/ml. In addition, in the series on mouse spleen WBC, the “Mouse spleen WBC after oral administration” value is 8.3 ×10^9 cells/ml. The “DNA repair enhancing activity (comparison in words)” value in the series on DNA repair was “as much DNA repair enhancing activity in vivo as did the QAEs”. The “Toxicity evaluated by mutagenicity in the Ames Assay” value in series [4] is “did not demonstrate any toxicity”. Besides, the Toxicity entry in [5] and in [6] was “None” in each case. Besides, the results for the “Efficacy (efficacious dose)” value in series [7] and in [8] were 250 mg/kg and “≦200 mg/kg”, respectively.

In the case of `N.O=C(O)[C@]1(O)C[C@@H](O)[C@@H](O)[C@H](O)C1` [Quinmax™, quinic acid ammonium chelate], the “IC50 growth inhibition of HL-60 cells” value in series [2] (FIG. 1, listed as QA-NH4+) is “more effective than known salts such as QA-Na+”. Also, the “IC50 growth inhibition of HL-60 cells” value in [2] (FIG. 1, listed as QA-NH4+ chelate) is “much more biologically effective than any other salt or chelate; also recorded: as efficacious as the cat's claw water extract (C-Med-100)”. In series [1], the “IC25 growth of spleen cells (comparison in words)” value is “dramatically lowering the IC25, IC50 and IC90 values compared to quinic acid (H+)”; the “IC50 growth of spleen cells (comparison in words)” value was “dramatically lowering the IC25, IC50 and IC90 values compared to quinic acid (H+)”; the “IC90 growth of spleen cells (comparison in words)” value was “dramatically lowering the IC25, IC50 and IC90 values compared to quinic acid (H+)”. Also, in the series with NF-kB, the “NF-kB inhibition (comparison in words)” value is listed as “enhanced NF-kB inhibition over quinic acid (H+)”. Also, in series [9], the Toxicity result is “None”. The “Prevention of cell death after exposure to DNA damaging agent DXR” value in series [3] (rat) is “prevent cell death”. The “DNA repair enhancing activity (comparison in words)” value with DNA repair is given as “as efficacious as Cat's Claw water extracts such as C-Med-100”. Also, in series [10], the “Time during which hippuric acid could be measured in serum” value is 3.7 to 12.5 h and the “Time of peak serum concentrations of QA” value is listed as “around 10.5 hr”. In series [8], the “Efficacy (efficacious dose)” value is “≦200 mg/kg”.

(Values after US20090275656A1, “Medicinal Compositions of Salts, Chelates and/or Free Acids of Alpha Hydroxyl Organic Acids and Related Processes and Methods” (priority 2005, published 2009).)
